Source: ChEMBL document CHEMBL3868600, “Antibacterial profiling of abietane-type diterpenoids” (Bioorg Med Chem, 2017)
Converted amounts (≈) assume the structure as drawn.

Columns and labels:
Candida albicans [1] = experiment: Antifungal activity against Candida albicans ATCC 90028 after 48 hrs by broth microdilution method; assay type: functional; conditions: ATCC 90028, 48 h
Staphylococcus aureus [2] = experiment: Growth inhibition of Staphylococcus aureus ATCC 25923 at 50 uM after 24 hrs by broth microdilution method; assay type: functional; conditions: ATCC 25923, 24 h, read-out: GI
Escherichia coli [3] = experiment: Growth inhibition of Escherichia coli ATCC 25922 at 50 uM after 24 hrs by broth microdilution method; assay type: functional; conditions: ATCC 25922, 24 h, read-out: GI
Candida albicans [4] = experiment: Growth inhibition of Candida albicans ATCC 90028 at 50 uM after 48 hrs by broth microdilution method; assay type: functional; conditions: ATCC 90028, 48 h, read-out: GI
Staphylococcus aureus [5] = experiment: Antibacterial activity against Staphylococcus aureus ATCC 25923 after 24 hrs by broth microdilution method; assay type: functional; conditions: ATCC 25923, 24 h
Salmonella typhimurium = experiment: Antibacterial activity against Salmonella typhimurium ATCC 13311 after 24 hrs by broth microdilution method; assay type: functional, Salmonella enterica subsp. enterica serovar Typhimurium; conditions: Salmonella enterica, ATCC 13311, 24 h
[6] = system: Staphylococcus epidermidis; experiment: Antibacterial activity against Staphylococcus epidermidis ATCC 12228 after 24 hrs by broth microdilution method; assay type: functional; conditions: ATCC 12228, 24 h
Cutibacterium acnes = experiment: Antibacterial activity against Propionibacterium acnes ATCC 6919 after 24 hrs by broth microdilution method; assay type: functional; conditions: ATCC 6919, 24 h
Streptococcus mitis = experiment: Antibacterial activity against Streptococcus mitis NCIMB 13770 after 24 hrs by broth microdilution method; assay type: functional; conditions: NCIMB 13770, 24 h
[7] = Antifungal activity against Rhodotorula mucilaginosa ATCC 66034 after 48 hrs by broth microdilution method; assay type: functional
[8] = Antifungal activity against Cladosporium cladosporioides ATCC 16022 after 48 hrs by broth microdilution method; assay type: functional
Staphylococcus aureus [9] = experiment: Antibacterial activity against methicillin-resistant Staphylococcus aureus ATCC 4330 after 24 hrs by broth microdilution method; assay type: functional; conditions: ATCC 4330, 24 h
Escherichia coli [10] = experiment: Antibacterial activity against Escherichia coli ATCC 25922 after 24 hrs by broth microdilution method; assay type: functional
Staphylococcus aureus [11] = experiment: Ratio of MIC90 for Staphylococcus aureus ATCC 25923 to MIC90 for methicillin-resistant Staphylococcus aureus ATCC 4330; assay type: functional

Compound	inhibition of growth at 50 µM (Staphylococcus aureus [2]) [%]	inhibition of growth at 50 µM (Escherichia coli [3]) [%]	inhibition of growth at 50 µM (Candida albicans [4]) [%]	MIC90 (Salmonella typhimurium) [µg/mL]	MIC90 [6] [µg/mL]	MIC90 (Cutibacterium acnes) [µg/mL]	MIC90 (Streptococcus mitis) [µg/mL]	also measured
C[C@@H]1[C@H](O)[C@@H](C)/C=C/C=C/C=C/C=C/C=C/C=C/C=C/[C@H](O[C@@H]2O[C@H](C)[C@@H](O)[C@H](N)[C@@H]2O)C[C@@H]2O[C@](O)(C[C@@H](O)C[C@@H](O)[C@H](O)CC[C@@H](O)C[C@@H](O)CC(=O)O[C@H]1C)C[C@H](O)[C@H]2C(=O)O [AMPHOTERICIN B]	–	–	–	–	–	–	–	MIC90 (Candida albicans [1]): 16 µg/mL (≈ 17.3 µM)
CC(C)C1=CC2=CC[C@@H]3[C@](C)(CCC[C@@]3(C)C(=O)O)[C@H]2CC1 [ABIETIC ACID]	44 to 45	0	-53	31 (≈ 102 µM)	8 (≈ 26.4 µM)	4 (≈ 13.2 µM)	16 (≈ 52.9 µM)	MIC90 (Staphylococcus aureus [5]): 63 µg/mL (≈ 208 µM); MIC90 [7]: 31 µg/mL (≈ 102 µM); MIC90 [8]: 63 µg/mL (≈ 208 µM); MIC90 (Staphylococcus aureus [9]): 31 µg/mL (≈ 102 µM)
GENTAMICIN	–	–	–	–	–	–	–	MIC90 (Escherichia coli [10]): 2 µg/mL
COC(=O)[C@@H](NC(=O)[C@]1(C)CCC[C@@]2(C)[C@H]1CC=C1C=C(C(C)C)CC[C@@H]12)C(C)C	6	6	0	–	–	–	–	–
COC(=O)[C@H](CO)NC(=O)[C@]1(C)CCC[C@@]2(C)[C@H]1CC=C1C=C(C(C)C)CC[C@@H]12	76	9	39	> 125	16 (≈ 39.6 µM)	> 125	> 125	IC50 (Staphylococcus aureus [5]): 21 to 30 µg/mL (≈ 52 to 74.3 µM); MIC90 (Staphylococcus aureus [5]): 61 µg/mL (≈ 151 µM); MIC90 [7]: 31 µg/mL (≈ 76.8 µM); MIC90 [8]: > 125 µg/mL; MIC90 (Staphylococcus aureus [9]): 62 µg/mL (≈ 154 µM)
CC1(C)S[C@@H]2[C@H](NC(=O)[C@H](N)c3ccccc3)C(=O)N2[C@H]1C(=O)O [AMPICILLIN]	–	–	–	0.5 (≈ 1.43 µM)	2 (≈ 5.72 µM)	0.125 (≈ 0.358 µM)	2 (≈ 5.72 µM)	–
CN(C)[C@@H]1C(O)=C(C(N)=O)C(=O)[C@@]2(O)C(O)=C3C(=O)c4c(O)cccc4[C@@](C)(O)[C@H]3C[C@@H]12 [TETRACYCLINE]	–	–	–	16 (≈ 36 µM)	1 (≈ 2.25 µM)	2 (≈ 4.5 µM)	1 (≈ 2.25 µM)	–
CC[C@H](NC(=O)[C@]1(C)CCC[C@@]2(C)[C@H]1CC=C1C=C(C(C)C)CC[C@@H]12)C(=O)OC	-12	11	23	–	–	–	–	–
O=C(N[C@H](CO)[C@H](O)c1ccc([N+](=O)[O-])cc1)C(Cl)Cl [CHLORAMPHENICOL]	–	–	–	8 (≈ 24.8 µM)	8 (≈ 24.8 µM)	4 (≈ 12.4 µM)	4 (≈ 12.4 µM)	–
COC(=O)[C@@H](CO)NC(=O)[C@]1(C)CCC[C@]2(C)c3ccc(C(C)C)cc3CC[C@@H]12	–	–	–	31 (≈ 77.2 µM)	8 (≈ 19.9 µM)	16 (≈ 39.8 µM)	8 (≈ 19.9 µM)	IC50 (Staphylococcus aureus [5]): 21 to 30 µg/mL (≈ 52.3 to 74.7 µM); MIC90 (Staphylococcus aureus [5]): 60 µg/mL (≈ 149 µM); MIC90 [7]: 31 µg/mL (≈ 77.2 µM); MIC90 [8]: > 125 µg/mL; MIC90 (Staphylococcus aureus [9]): 8 µg/mL (≈ 19.9 µM); Ratio (Staphylococcus aureus [11]): 7.5
O=C(O)c1cn(C2CC2)c2cc(N3CCNCC3)c(F)cc2c1=O [CIPROFLOXACIN]	–	–	–	–	–	–	–	MIC90 (Staphylococcus aureus [5]): 1 µg/mL (≈ 3.02 µM)
COC(=O)[C@H](CC1CCCCC1)NC(=O)[C@]1(C)CCC[C@@]2(C)[C@H]1CC=C1C=C(C(C)C)CC[C@@H]12	-8	3	-35	–	–	–	–	–
NYSTATIN	–	–	–	–	–	–	–	MIC90 [7]: 0.125 µg/mL; MIC90 [8]: 64 µg/mL
CC[C@H]1OC(=O)[C@H](C)[C@@H](O[C@H]2C[C@@](C)(OC)[C@@H](O)[C@H](C)O2)[C@H](C)[C@@H](O[C@@H]2O[C@H](C)C[C@H](N(C)C)[C@H]2O)[C@](C)(OC)C[C@@H](C)C(=O)[C@H](C)[C@@H](O)[C@]1(C)O [CLARITHROMYCIN]	–	–	–	–	–	0.5 (≈ 0.668 µM)	0.25 (≈ 0.334 µM)	–
COC(=O)[C@H](CC(C)C)NC(=O)[C@]1(C)CCC[C@@]2(C)[C@H]1CC=C1C=C(C(C)C)CC[C@@H]12	-9	6	-8	–	–	–	–	–
OC(Cn1cncn1)(Cn1cncn1)c1ccc(F)cc1F	–	–	–	–	–	–	–	MIC90 [7]: 0.5 µg/mL (≈ 1.63 µM); MIC90 [8]: 520 µg/mL (≈ 1700 µM)
COC(=O)CNC(=O)[C@]1(C)CCC[C@@]2(C)[C@H]1CC=C1C=C(C(C)C)CC[C@@H]12	13	8	20	–	–	–	–	–
COC(=O)[C@H](CO)NC(=O)[C@]1(C)CCC[C@]2(C)c3ccc(C(C)C)cc3CC[C@@H]12	–	–	–	–	–	–	–	IC50 (Staphylococcus aureus [5]): 21 to 30 µg/mL (≈ 52.3 to 74.7 µM); MIC90 (Staphylococcus aureus [5]): > 125 µg/mL
COC(=O)[C@H](Cc1ccccc1)NC(=O)[C@]1(C)CCC[C@@]2(C)[C@H]1CC=C1C=C(C(C)C)CC[C@@H]12	-1	6	-13	–	–	–	–	–
